Test results from patent publication US20180085416A1, “TRADITIONAL CHINESE MEDICINE COMPOSITION AND PREPARATION METHOD AND USE THEREOF” (INFINITUS (CHINA) COMPANY LTD., priority 2016, published 2018).

Legend:
[1] = test system: excreted amount of phenol red in trachea of mice; experiment: Expectorant effect in mice (phenol red excretion in trachea); format: in vivo, Balb/c mice
Experimental: 80 Balb/c male mice (about 8 weeks old) were randomized into 8 groups based on body weight (10 mice/group). The groups were respectively blank control group and positive control group—ammonium chloride group (1 g/kg), high, medium and low dose groups of the traditional Chinese medicine composition produced by Comparative Example 1 (0.35, 1.05, 2.10 ml/kg), high, medium and low dose groups of the medicament produced by Example 1 (0.35, 1.05, 2.10 ml/kg). The blank control group was administered equal volume of deionized water. The administration volume was always 2.10 ml/kg. Gavage was performed for consecutive 30 days, once/day. 30 min before modeling, the positive control group was administered. […] A certain amount of phenol red was weighted with a balance, and 5% sodium bicarbonate solution was added to formulate 1 ml solution containing […] of phenol red, which was diluted sequentially to 1 mL solution containing 0.1, 0.3, 0.7, 1.0, 3.0, 5.0, 10.0 μg of phenol red was measured for absorbance. A standard curve was made by taking the dose of phenol red as abscissa, absorbance as ordinate. The amount of phenol red was calculated from the standard curve of phenol red according to the measured OD value. […]

[2] = test system: carrageenan induced toe swelling of mice; experiment: Acute inflammatory model: carrageenan-induced paw edema; format: in vivo, Balb/c mice; conditions: 10 mg/kg, blank control = 100
Experimental: 90 Balb/c male mice (about 8 weeks old) were randomized into 9 groups based on body weight (10 mice/group). The groups were respectively blank control group, model group and positive control group—dexamethasone group, high, medium and low dose groups of the traditional Chinese medicine composition produced by Comparative Example 1 (0.35, 1.05, 2.10 ml/kg), high, medium and low dose groups of the medicament produced by Example 1 (0.35, 1.05, 2.10 ml/kg). Animals from Comparative Example group and Examples of the present application groups were intragastrically administrated 30 days before modeling, once a day. Blank control group and model control group were administered equal volume of distilled water. The administration volume was always 2.10 ml/kg. Dexamethasone group was administered at 10 mg/kg, and was intragastrically administrated 10 days before modeling. The model control group was intragastrically administrated equal volume of distilled water for consecutive 30 days, once a day. On day 30, 1 hour after the test samples were administered, a line was drawn using a marker pen along the external malleolus of right rear paw of rats as the marker. A toe volume measuring instrument was used to measure the volumes of right rear toes of each groups of rats (as the toe volume at 0 hour), and then the right rear toes of rats were subcutaneously injected 1% carrageenan (0.05 mL/rat). The thickness of rat paws at 1, 2, 4 hours were measured respectively. Each animal was measured for 3 times at the same site, and the results were averaged. The swelling value is defined as the difference between the toe volumes measured at different times and the toe volumes before the action of proinflammatory agent, which is used to calculate the toe volume swelling rates at each time period.
[Paw edema (mm)]=[footpad thickness of carrageenan (mm)−footpad thickness of PBS (mm)].

mouse tampon granuloma = experiment: Chronic inflammatory model: cotton pellet (tampon) induced granuloma; format: in vivo, Balb/c mice; conditions: mice, 10 mg/kg
Experimental: 80 Balb/c male mice (about 8 weeks old) were randomized into 8 groups based on body weight (10 mice/group). The groups were respectively model group and positive control group—dexamethasone group, high, medium and low dose groups of the traditional Chinese medicine composition produced by Comparative Example 1 (0.35, 1.05, 2.10 ml/kg), high, medium and low dose groups of the medicament produced by Example 1 (0.35, 1.05, 2.10 ml/kg). Animals from Comparative Example group and Examples of the present application groups were intragastrically administrated 30 days before modeling, once a day. Model control group was administered equal volume of deionized water. The administration volume was always 2.10 ml/kg. Dexamethasone group was administered at 10 mg/kg, and was intragastrically administrated 10 days before modeling. After the last administration, the mice were anesthetized by intraperitoneal injection of 3% pentobarbital sodium at a dose of 60 mg/kg body weight. After anesthesia, the animals were fixed in supine position, and the bilateral inguinal clothing hairs of the rats were removed with a hair removal device. After iodophor disinfection, the rats were subjected to skin incision for about 2 cm at both sides of the groin, and a sterilized tampon was implanted at both sides of the groin of the rats. […]

[3] = test system: capsaicin induced rats' pharyngitis; experiment: Effect on acute pharyngitis (capsaicin induced pharyngitis), EB dye exudation at pharyngeal mucosa; format: in vivo, SD rats; conditions: 1 mg/kg intragastric, 10 days before modeling
Experimental: Experimental method: 90 male SD rats (˜8 weeks age) were randomized into 9 groups (10 rats/group). […] Animals from Comparative Example groups and Example of the present application groups were intragastrically administrated 30 days before modeling, once a day. Blank control group and model control group were administered equal volume of distilled water. […] The positive control group was administered at 1 mg/kg, and was intragastrically administrated 10 days before modeling. 24 hours after the last administration, the rats were anesthetized, injected with EB dye through the side tail vein. Ten minutes later, capsaicin was smeared to velopharyngeal tissue mucosa of rats, wherein each point was smeared for 3 times/5 seconds, with a total of 60 minutes. Blank control group was not subjected to stimulation.
After the end of the experiment, all rats were sacrificed by cervical dislocation, and were subjected to quantitative determination of EB dye exudation at pharyngeal mucosa respectively, in order to evaluate the improvement situation of pharyngeal mucosa inflammation of rats induced by capsaicin.

SMILES | excreted amount of phenol red, result in words ([1]; compared with control group) | excreted amount of phenol red ([1]; mice, 1 g/kg, 30 min before modeling) | Swelling degrees of toes at different times after inflammation, 1 h ([2]; 1 h) | Swelling degrees of toes at different times after inflammation, 2 h ([2]; 2 h) | Swelling degrees of toes at different times after inflammation, 4 h ([2]; 4 h) | wet weight of granuloma (mouse tampon granuloma) | Net weight of granuloma (mouse tampon granuloma; dried weight minus original weight of tampon) | exudated amount of evans blue (EB) [3]
Cl.N [ammonium chloride] | significantly (P<0.05) increase the excreted amount of phenol red | 7.92 ± 0.88 µg/mL | – | – | – | – | – | –
C[C@@H]1C[C@H]2[C@@H]3CCC4=CC(=O)C=C[C@]4(C)[C@@]3(F)[C@@H](O)C[C@]2(C)[C@@]1(O)C(=O)CO [dexamethasone, Dexamethasone] | – | – | 177.23 | 164.17 | 157.17 | 217.11 | 13.03 mg | 36.98 ± 2.74 µg/g
